Test results published in US7790896B2, “RNA-selective probes for live cell imaging of nuclear structure and function” (New York University, priority 2006, dated 2010).

Experiments:
[1] = Fluorescent properties of free dye solution; format: physicochemical; details: for EM (emission λmax), Buffer / EX (excitation λmax), Buffer: TE buffer pH 7.5, dye 5 μM; for ε free (extinction coefficient) / ΦF free (quantum yield): TE buffer pH 7.5, dye 5 μM for E36, 10 μM for E144 and F22; for ΦF free (quantum yield): Rhodamine 6G standard
Experimental: (§1) The fluorescence spectra data in the primary screening and selected dyes titration assay study was obtained by Gemini XS plate reader. RNA solution was prepared right before the assay experiments to avoid possible degradation and contamination. In the primary screening, 1 mg/mL RNA (type VI from torula yeast) buffer solution was used. Point scans were carried out first using five Ex/Em point sets ([…], 400/500, 450/550, 500/600, 550/650 nm). Spectra scans were then carried out for the selected dyes. Excitation wavelengths were set at 350 nm, 400 nm, 450 nm, 500 nm, and 550 nm and the emission wavelengths were scanned. RNA (16S- and 23S-ribosomal from E. coli) and DNA (salmon testes) titration experiments and quantum yield/extinction coefficient determination for the three best dyes were carried out by the plate reader as well. Excitation λmax obtained from F-2500 Hitachi Fluorophotometer was used. Absorbance wavelength was determined by SpectraMax Plus^384 absorbance plate reader. […] was chosen as standard and 480 nm was used as excitation wavelength in the scanning for quantum yield determination. […] Generally, the λmax (nm) of emission was determined by scanning a fixed excitation first, and the μmax (nm) of excitation was determined by scanning emission spectrum with a fixed μem (nm). The detailed fluorescent properties of three selected dyes including; excitation/emission μmax, the quantum yield and extinction coefficient of both free dye solution and dye-RNA solution were assessed (Table 5).

[2] = test system: 3T3 fibroblast cells, 3T3-L1 adipocyte cells, Hela cells and A549 human lung carcinoma cells; test: Secondary screening: live cell nuclear imaging properties in four cell lines; format: cell-based, mouse; details: dye 25 μM
Experimental: All cell staining imaging followed the same procedure. Generally, dyes in dry state were first dissolved in DMSO to obtain the stock solution. The stock solutions were then added directly to the cell culture wells to reach the desired concentration. Total DMSO was lower than 0.1%. After adding dyes, cells were incubated at 37° C. in 5% CO2 for 25 minutes. The medium was then removed and cells were rinsed with fresh medium twice. The cells were then imaged at ambient temperature in the medium. Exposure time was kept less than 5 seconds and adjusted to each dye.
The selected compounds from both primary screens (total 88) were resynthesized in large scale and purified. The compounds' live cell nuclear imaging properties were then tested by four cell lines, including two mouse cell lines: 3T3 fibroblast cells and 3T3-L1 adipocyte cells; and two human cancer cell lines: Hela cells and A549 human lung carcinoma cells. Herein, the final dye concentration in each test was decreased to 25 μM and all the experiments were repeated to establish reproducibility. […] Each of the three dyes contained at least one high affinity nucleic acid functional group (Trotta et al., “Solution Structure of DAPI Selectively Bound in the Minor Groove of a DNA T-T Mismatch-Containing Site: NMR and Molecular Dynamics Studies,” Nucleic Acids Res. 26:4706-4713 (1998); Loontiens et al., “Binding Characteristics of Hoechst 33258 with Calf Thymus DNA, Poly[d(A-T)], and d(CCGGAATTCCGG): Multiple Stoichiometries and Determination of Tight Binding with a Wide Spectrum of Site Affinities,” Biochem. 29:9029-9039 (1990); Zipper et al., “Investigations on DNA Intercalation and Surface Binding by SYBR Green I, Its Structure Determination and Methodological Implications,” Nucleic Acid Res. 32:E103 (2004); Glazer et al., “Stable Dye-DNA Intercalation Complexes as Reagents for High-Sensitivity Fluorescence Detection,” Nature 359:859-861 (1992), which are hereby incorporated by reference in their entirety) in building block II such as the terminal secondary amine for F22 and F112, the trimethoxy for E 144, and the indole for E36.

[3] = test system: RNA (16S- and 23S-ribosomal from E. coli); test: Fluorescent properties of dye-RNA solution; format: binding; details: for EM (emission λmax), RNA / EX (excitation λmax), RNA: TE buffer pH 7.5, dye 5 μM; for EM (emission λmax), RNA / EX (excitation λmax), RNA / ΦF RNA (quantum yield) / ε RNA (extinction coefficient): RNA 200 μg/mL; for ΦF RNA (quantum yield) / ε RNA (extinction coefficient): TE buffer pH 7.5, dye 5 μM for E36, 10 μM for E144 and F22; for ΦF RNA/ΦF free: ratio of quantum yields with RNA 200 μg/mL and free
Experimental: as §1

[4] = test system: RNA, 16S- and 23S-ribosomal from E. coli; test: Dye concentration dependency titration with RNA; format: binding; details: dye 0.15 μM to 10 μM, RNA 50 μg/mL
Experimental: Samples containing 50 μg/mL RNA in TE buffer with an increasing concentration of compound from 0.15 μM to 10 μM. Shown here is the intensity increase recorded at the emission λmax wavelength of each dye. […] The samples contain fixed concentration of dyes (E36: 5 μM; E144: 10 μM; F22: 10 μM) in TE buffer with an increasing concentration of RNA or DNA from 0.19 μg/mL to 200 μg/mL. Data points were in duplicated in individual experiments, and error bars represent standard deviation.
The fluorescence spectra data in the primary screening and selected dyes titration assay study was obtained by Gemini XS plate reader. RNA solution was prepared right before the assay experiments to avoid possible degradation and contamination. In the primary screening, 1 mg/mL RNA (type VI from torula yeast) buffer solution was used. Point scans were carried out first using five Ex/Em point sets ([…], 400/500, 450/550, 500/600, 550/650 nm). Spectra scans were then carried out for the selected dyes. Excitation wavelengths were set at 350 nm, 400 nm, 450 nm, 500 nm, and 550 nm and the emission wavelengths were scanned. RNA (16S- and 23S-ribosomal from E. coli) and DNA (salmon testes) titration experiments and quantum yield/extinction coefficient determination for the three best dyes were carried out by the plate reader as well. Excitation λmax obtained from F-2500 Hitachi Fluorophotometer was used. Absorbance wavelength was determined by SpectraMax Plus^384 absorbance plate reader. […] was chosen as standard and 480 nm was used as excitation wavelength in the scanning for quantum yield determination.
The RNA binding characteristics of these dyes was further examined by determining if the fluorescent intensity was concentration dependent (FIG. 3A). […] Moreover, a slight emission Ma red shift was observed (total 8 nm) with the increasing concentration of E36.

Row | Compound | EM (emission λmax), Buffer [1] | EX (excitation λmax), Buffer [1] | ε free (extinction coefficient) [1] | ΦF free (quantum yield) [1] | Live cell nuclear imaging properties (basis of selection) [2] | EM (emission λmax), RNA [3] | EX (excitation λmax), RNA [3] | ΦF RNA (quantum yield) [3] | ε RNA (extinction coefficient) [3] | ΦF RNA/ΦF free [3] | Emission λmax red shift with increasing dye concentration [4] | Fluorescent intensity vs dye concentration (titration curve) [4]
1 | COc1ccc2c(ccc(/C=C/c3ccc(N(C)C)cc3)[n+]2C)c1 [Dye F22] | 598 nm | 492 nm | 17400 M⁻¹ cm⁻¹ | 0.0007 | selective nucleolar targeting, high fluorescence intensity, low photobleaching, and low cellular toxicity | 620 nm | 548 nm | 0.0075 | 20000 M⁻¹ cm⁻¹ | 10.7 | did not show obvious wavelength shift | evidence of saturation at high concentration
2 | COc1cc(OC)c(/C=C/c2ccc3ccccc3[n+]2C)c(OC)c1 [Dye E144] | 532 nm | 440 nm | 13200 M⁻¹ cm⁻¹ | 0.0056 | selective nucleolar targeting, high fluorescence intensity, low photobleaching, and low cellular toxicity | 532 nm | 456 nm | 0.0310 | 14600 M⁻¹ cm⁻¹ | 5.5 | did not show obvious wavelength shift | almost linear curve
3 | C[n+]1c(/C=C/c2c[nH]c3ccccc23)ccc2ccccc21 [Dye E36] | 541 nm | 457 nm | 39400 M⁻¹ cm⁻¹ | 0.0019 | selective nucleolar targeting, high fluorescence intensity, low photobleaching, and low cellular toxicity | 548 nm | 497 nm | 0.1041 | 43100 M⁻¹ cm⁻¹ | 54.6 | 8 nm | evidence of saturation at high concentration
